Experimental data taken from patent US10221163B2 (priority 2015, dated 2019).
Read-outs that look alike come from different tables or passages of the source.

Columns and labels:
[1] = test system: Pseudomonas aeruginosa efflux+ (MB9798), IMP-1; format: cell-based; conditions: concentration restoring susceptibility to imipenem at 2 μg/mL in the presence of a class A, C, D serine β-lactamase inhibitor closely related to relebactam
Method in brief: (§1)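 Microbroth MIC tests in PAO1-background strains with fixed imipenem and/or ceftazidime, usually at the CLSI breakpoint, plus fixed class A/C β-lactamase inhibitor against AmpC. MBL inhibitor titrated; concentration restoring susceptibility recorded and compared as fold difference between efflux+ MB9798 and efflux− MB9799.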

[2] = test system: Serratia marcescens expressing IMP-1 (CL5741); format: cell-based; conditions: with imipenem 1 μg/ml; 95% inhibition of bacterial growth
Method in brief: (§2)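 Clinical isolates (E. coli NDM-1, S. marcescens IMP-1, K. pneumoniae VIM-1) were diluted 1:100 from saline suspension into 1.1×CAMHB and exposed to test compound with imipenem at 1 μg/ml. Plates were incubated at 35° C for 22 hours to 24 hours, and growth was read by absorbance.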

[3] = test system: Escherichia coli expressing NDM-1 (CLB30005, CLB30016); format: cell-based; conditions: with imipenem 1 μg/ml; 95% inhibition of bacterial growth
Method in brief: as §2

[4] = test system: Klebsiella pneumoniae expressing VIM-1 (IHMA599644); format: cell-based; conditions: with imipenem 1 μg/ml; 95% inhibition of bacterial growth
Method in brief: as §2

VIM-1 = VIM-1 (Pseudomonas aeruginosa (strain ATCC 15692 / DSM 22644 / CIP 104116 / JCM 14847 / LMG 12228 / 1C / PRS 101 / PAO1), UniProt A0A0F7KYQ8); experiment: biochemical; conditions: CCF2-FA substrate, 30 pM enzyme, 2 hours at 25° C.
Method in brief: (§3)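 IC50 values derive from 4-parameter fits of percent inhibition against inhibitor concentration on semi-log axes. Activity was monitored by fluorescence with the CCF2-FA substrate after a 2-hour, 25° C incubation of compound, enzyme and substrate.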

NDM-1 = NDM-1 (Klebsiella pneumoniae, UniProt C7C422); experiment: biochemical; format: biochemical; conditions: fluorescence assay, CCF2-FA substrate, 1 pM enzyme, 2 hours at 25° C.; read-out: NDM-1 IC50
Sequence of NDM-1 (C7C422 whole entry, looked up, species assumed): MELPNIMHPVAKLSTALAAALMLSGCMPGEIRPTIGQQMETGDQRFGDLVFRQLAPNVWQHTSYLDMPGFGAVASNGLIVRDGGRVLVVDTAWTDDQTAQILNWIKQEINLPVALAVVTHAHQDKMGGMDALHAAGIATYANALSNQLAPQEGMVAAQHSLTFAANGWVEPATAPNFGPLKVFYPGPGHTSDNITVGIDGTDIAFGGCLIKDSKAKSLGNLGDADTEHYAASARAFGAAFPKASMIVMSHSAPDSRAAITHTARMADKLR
Method in brief: as §3

IMP-1 = IMP-1 (Serratia marcescens, UniProt P52699); experiment: biochemical; format: biochemical; conditions: fluorescence assay, CCF2-FA substrate, 2 pM enzyme, 2 hours at 25° C.; read-out: IMP-1 IC50
Sequence of IMP-1 (P52699 whole entry, looked up, species assumed): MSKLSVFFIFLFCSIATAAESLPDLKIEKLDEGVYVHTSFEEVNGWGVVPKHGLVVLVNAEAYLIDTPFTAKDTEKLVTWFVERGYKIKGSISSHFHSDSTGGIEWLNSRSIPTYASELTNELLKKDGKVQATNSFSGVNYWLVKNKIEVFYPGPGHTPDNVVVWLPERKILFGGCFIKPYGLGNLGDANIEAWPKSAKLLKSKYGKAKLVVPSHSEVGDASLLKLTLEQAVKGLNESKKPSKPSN
Method in brief: as §3

[5] = test system: Pseudomonas aeruginosa efflux− (MB9799), IMP-1; format: cell-based; conditions: concentration restoring susceptibility to imipenem at 2 μg/mL in the presence of a class A, C, D serine β-lactamase inhibitor closely related to relebactam
Method in brief: as §1

[6] = test system: Pseudomonas aeruginosa MB9798 vs MB9799; conditions: ratio MITC95 PA_9798/MITC95 PA_9799
Method in brief: as §1

[7] = fluorescence assay, read-out: VIM-1 IC50

| SMILES | P. aeruginosa expressing IMP-1, efflux + (MB9798) MITC95 [1] [µM] | Serratia marcescens expressing IMP-1 (CL5741) MITC95 [2] [µM] | Escherichia coli expressing NDM-1 (CLB30016) MITC95 [3] [µM] | Klebsiella pneumoniae expressing VIM-1 (IHMA599644) MITC95 [4] [µM] | IC50 (VIM-1; [7]) [nM] | IC50 (NDM-1) [nM] | IC50 (IMP-1) [nM] | P. aeruginosa expressing IMP-1, efflux − (MB9799) MITC95 [5] [µM] | Efflux ratio [6] | IC50 (VIM-1; VIM-1 IC50, fluorescence assay) [nM] |
| --- | --- | --- | --- | --- | --- | --- | --- | --- | --- | --- |
| Nc1nc2c(-c3ccc(S(=O)(=O)NCc4ccccn4)c(S(N)(=O)=O)c3-c3nnn[nH]3)cccc2s1.O=C(O)C(F)(F)F [Example 106, 2-((4-(2-aminobenzo[d]thiazol-4-yl)-2-sulfamoyl-3-(1H-tetrazol-5-yl)phenylsulfonamido)methyl)pyridin-1-ium 2,2,2-trifluoroacetate] | 12.5 | 3.125 | 6.25 | 12.5 | 0.236 | 0.0733 | 0.379 | 3.125 | 4.00 | – |
| CN1CC(N(C)S(=O)(=O)c2ccc(-c3cccc4sc(N)nc34)c(-c3nnn[nH]3)c2S(N)(=O)=O)C1.O=C(O)C(F)(F)F [Example 107, 3-(4-(2-aminobenzo[d]thiazol-4-yl)-N-methyl-2-sulfamoyl-3-(1H-tetrazol-5-yl)phenylsulfonamido)-1-methylazetidin-1-ium 2,2,2-trifluoroacetate] | 6.25 | 3.125 | 3.125 | 6.25 | 1.69 | 0.184 | 1.4 | 1.563 | 4.00 | – |
| CO[C@H]1CNC[C@@H]1NS(=O)(=O)c1ccc(-c2cccc3sc(N)nc23)c(-c2nnn[nH]2)c1S(N)(=O)=O.O=C(O)C(F)(F)F [Example 108, (3S,4S)-3-(4-(2-aminobenzo[d]thiazol-4-yl)-2-sulfamoyl-3-(1H-tetrazol-5-yl)phenylsulfonamido)-4-methoxypyrrolidin-1-ium 2,2,2-trifluoroacetate] | 1.563 | 3.125 | 1.563 | 3.125 | 0.268 | 0.0512 | 0.336 | 1.563 | 1.00 | – |
| CC(N)CNS(=O)(=O)c1ccc(-c2cccc3sc(N)nc23)c(-c2nnn[nH]2)c1S(N)(=O)=O.O=C(O)C(F)(F)F (stereo not drawn) [Example 109, 1-(4-(2-aminobenzo[d]thiazol-4-yl)-2-sulfamoyl-3-(1H-tetrazol-5-yl)phenylsulfonamido)propan-2-aminium 2,2,2-trifluoroacetate] | 0.7813 | 1.563 | 1.563 | 3.125 | – | 0.0821 | 0.44 | 1.563 | 0.50 | 0.322 |
| NCC1CCCCN1S(=O)(=O)c1ccc(-c2cccc3sc(N)nc23)c(-c2nnn[nH]2)c1S(N)(=O)=O.O=C(O)C(F)(F)F (stereo not drawn) [Example 110, (1-((4-(2-aminobenzo[d]thiazol-4-yl)-2-sulfamoyl-3-(1H-tetrazol-5-yl)phenyl)sulfonyl)piperidin-2-yl)methanaminium 2,2,2-trifluoroacetate] | 1.563 | 3.125 | 1.563 | 3.125 | 0.309 | 0.0815 | 0.346 | 1.563 | 1.00 | – |
| Nc1nc2c(-c3ccc(S(=O)(=O)NC4C5CNCC54)c(S(N)(=O)=O)c3-c3nnn[nH]3)cccc2s1.O=C(O)C(F)(F)F (stereo not drawn) [Example 111, 6-(4-(2-aminobenzo[d]thiazol-4-yl)-2-sulfamoyl-3-(1H-tetrazol-5-yl)phenylsulfonamido)-3-azabicyclo[3.1.0]hexan-3-ium 2,2,2-trifluoroacetate] | 0.7813 | 1.563 | 1.563 | 3.125 | 0.298 | 0.0746 | 0.429 | 1.563 | 0.50 | – |
| Nc1nc2c(-c3ccc(S(=O)(=O)NCC4CNCCO4)c(S(N)(=O)=O)c3-c3nnn[nH]3)cccc2s1.O=C(O)C(F)(F)F (stereo not drawn) [Example 112, 2-((4-(2-aminobenzo[d]thiazol-4-yl)-2-sulfamoyl-3-(1H-tetrazol-5-yl)phenylsulfonamido)methyl)morpholin-4-ium 2,2,2-trifluoroacetate] | 1.563 | 1.563 | 1.563 | 3.125 | – | 0.046 | 0.318 | 1.563 | 1.00 | 0.219 |
| Nc1nc2c(-c3ccc(S(=O)(=O)NCC4(N)CCOCC4)c(S(N)(=O)=O)c3-c3nnn[nH]3)cccc2s1.O=CO [Example 115, 4-((4-(2-aminobenzo[d]thiazol-4-yl)-2-sulfamoyl-3-(1H-tetrazol-5-yl)phenylsulfonamido)methyl)tetrahydro-2H-pyran-4-aminium formate] | 3.125 | 3.125 | 3.125 | 6.25 | 0.388 | 0.0602 | 0.324 | 3.125 | 1.00 | – |
| CC(CN)NS(=O)(=O)c1ccc(-c2cccc3sc(N)nc23)c(-c2nnn[nH]2)c1S(N)(=O)=O.O=CO (stereo not drawn) [Example 116, 2-(4-(2-aminobenzo[d]thiazol-4-yl)-2-sulfamoyl-3-(1H-tetrazol-5-yl)phenylsulfonamido)propan-1-aminium formate] | 0.7813 | 1.563 | 1.563 | 3.125 | – | 0.0239 | 0.267 | 1.563 | 0.50 | 0.265 |
| Nc1nc2c(-c3ccc(S(=O)(=O)NCC4CCNC4)c(S(N)(=O)=O)c3-c3nnn[nH]3)cccc2s1.O=CO (stereo not drawn) [Example 120, 3-((4-(2-aminobenzo[d]thiazol-4-yl)-2-sulfamoyl-3-(1H-tetrazol-5-yl)phenylsulfonamido)methyl)pyrrolidin-1-ium formate] | 0.7813 | 1.563 | 1.563 | 3.125 | – | 0.0495 | 0.258 | 1.563 | 0.50 | 0.202 |
